Assay results: paper PMC9815544, “Discovery of potent and noncovalent KRAS^G12D inhibitors: Structure-based virtual screening and biological evaluation” (Frontiers in Pharmacology, 2022)
Read-outs that look alike come from different tables or passages of the source.

Assays:
KRAS^G12D [1] = target: T1, KRAS^G12D (Homo sapiens, UniProt P01116, G12D); conditions: known inhibitor, Figure 1, cited from earlier work
T1 construct: purchased Abcam

Panc 04.03 cells = assay: MTT cell proliferation assay; type: cell-based; conditions: Homo sapiens, 72 h treatment
Description: According to the previously reported method ([Yang et al., 2019]), the human pancreatic cancer cell line (Panc 04.03) was seeded at the density of 2.4 × 10^4 on 96-well plates. After incubation at 37°C with 5% CO2 for 24 h, the cells were incubated with different concentrations of inhibitors under the same conditions. After 72 h, MTT (0.5 mg/ml, 100 μl) was added after the supernatant was discarded. Then keep the 96-well plate at 37°C for 4 h. After that, abandon the medium and inject 200 μl of dimethyl sulfoxide (DMSO) into each well. The spectrophotometric absorbance of the sample at 570 nm was measured using a Synergy 4 Microplate Reader (BioTek Instruments Inc., United States). All of the compounds were tested three times in each of the cells.

KRAS^G12D [2] = target: T1, KRAS^G12D; assay: Microscale thermophoresis (MST) binding assay; conditions: room temperature
Description: MST is an effective method to evaluate biomolecular interactions and has been used to study the interactions between binding partners of different molecular sizes ([Wienken et al., 2010]; [Seidel et al., 2013]). According to the previously reported method to measure the interaction between small molecule inhibitors and KRAS^G12D protein, the MST assay was performed using Monolith NT.115 instrument (NanoTemp Technologies, GmbH, Munich, Germany) ([Wienken et al., 2010]). The red fluorescent dye was used for KRAS^G12D fluorescent labeling. Small molecule inhibitors were diluted 1:1 and titrated. The binding buffer (50 mM Tris, 230 mM NaCl) was added to the dilution curve of the small molecule inhibitors and the labeled protein. The final sample was centrifuged at 13,000 rpm for 10 min, and then filled into the capillary tube for MST analysis with 20% LED power and 50% MST power at room temperature. The equilibrium dissociation constant (K d) was calculated using Nano Temper Analysis software.

[3] = system: Panc 04.03 xenograft tumors; assay: In vivo anticancer activity, Panc 04.03 xenograft; parameters: species or system BALB/c nude mice; conditions: 3 and 10 mg/kg intraperitoneal every 4 days, five times, 20 days, vs vehicle
Description: Based on previously reported protocols for investigating inhibition in vivo ([Zhou et al., 2022]), we injected Panc 04.03 cells (200 μl, 1 × 10^7 cells) in the subdermal space on the right flank of 6-week-old BALB/c nude mice (Changzhou Cavens Laboratory Animal Co., Ltd, China). All experimental protocols were approved by the Animal Ethics Committee of China Pharmaceutical University (Ethic approval number: 2022–11–001). Once tumors grew to 80–100 mm^3, mice were randomly divided into three groups (5 mice per group) and intraperitoneally administered with vehicle, hit compound 3 (3 mg/kg) and hit compound 3 (10 mg/kg) every 4 days for a total of five times. Tumor volume and body weight were measured every 4 days. Tumor volume was calculated using the formula (c × c × d)/2 (c, the smallest diameter; d, the largest diameter).

T1 sequence (P01116 1-188 isoform P01116-2 G12D): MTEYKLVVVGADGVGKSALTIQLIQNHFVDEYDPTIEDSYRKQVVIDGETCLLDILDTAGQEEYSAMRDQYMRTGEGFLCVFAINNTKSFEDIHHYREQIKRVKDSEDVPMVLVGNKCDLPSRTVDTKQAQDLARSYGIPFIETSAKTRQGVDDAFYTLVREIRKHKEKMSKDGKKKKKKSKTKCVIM

| SMILES | IC50 (Panc 04.03 cells) | Kd (KRAS^G12D [2]) | other results |
| --- | --- | --- | --- |
| Cn1cnc(Cn2ccc3ccc(CNCc4[nH]c5ccccc5c4[C@H]4NC(=O)c5ccc(O)cc54)cc32)c1 [BI-2852] | – | – | IC50 (KRAS^G12D [1]; ref Kessler et al., 2019): 6700 nM |
| C#Cc1c(F)ccc2cc(O)cc(-c3ncc4c(N5CC6CCC(C5)N6)nc(OCC(C)NC(F)(F)F)nc4c3F)c12 (stereo not shown) [Hit compound 1] | 212 nM | 0.98 ± 0.09 nM | – |
| C#Cc1c(F)ccc2cc(O)cc(-c3ncc4c(N5CC6CCC(C5)N6)nc(OCC5CCCN5CC5CC5)nc4c3F)c12 (stereo not shown) [Hit compound 2] | 90 nM | 0.46 ± 0.08 nM | – |
| Oc1cc(-c2ncc3c(N4CC5CCC(C4)N5)nc(OCC4CCCN4CCC4CCCC4)nc3c2F)c2c(Cl)cccc2c1 (stereo not shown) [Hit compound 3] | 43.8 nM | 0.13 ± 0.05 nM | Tumor growth (tumor volume) of Panc 04.03 xenograft [3]: significantly inhibited |
| Oc1cc(-c2ncc3c(N4CC5CCC(C4)N5)nc(OCCNC4CCCCC4)nc3c2F)c2c(Cl)cccc2c1 [Hit compound 4] | 146 nM | 0.76 ± 0.11 nM | – |
| Cc1cccc2cccc(N3CCc4c(nc(OCC5CCCN5C)nc4N4CC5CCC(C4)N5)C3)c12 (stereo not shown) [TH-Z835, reference compound] | > 300 nM | – | IC50 (KRAS^G12D [1]; ref Mao et al., 2022): 1600 nM |
| NC1(C(=O)NCCCn2cc(-c3ccc(OC(F)(F)F)cc3)c3cc(CN4CCN(Cc5c(Cl)cccc5Cl)CC4)ccc32)CCNCC1 [compound 3144] | – | – | IC50 (KRAS^G12D [1]; ref Welsch et al., 2017): 3800 nM |
